The values below come from ChEMBL document CHEMBL3046825, “Molecular Mechanism for Selective Toxicity of Nicotinoids and Neonicotinoids” (J Pestic Sci, 1995).

The structures appear in SMILES notation. Calls of active or inactive are those of the source. No cut-off for these calls is given here.

Assay [1] in a line: Displacement of [3H]alpha-BGT from nAChR in Apis mellifera (honeybee) head. On the technique in general: In a radioligand displacement assay an active substance lowers the binding of a labelled ligand.
A short description of assay [2]: Displacement of [3H]nicotine from nAChR in Sprague-Dawley Rattus norvegicus (rat) whole brain homogenates. It counts as tissue-based.
Assay [3] has as its target Acetylcholine receptor subunit alpha (Torpedo californica) (UniProt P02710). In words: Increase in [3H]PCP binding to nAChR in Torpedo nobiliana electric organs in presence of carbachol. The conditions noted are these: Electric organ.
For assay [4] the target is unchanged. In words: Increase in [3H]PCP binding to nAChR in Torpedo nobiliana electric organs. The conditions noted are these: Electric organ.
The target is the same in assay [5]. In words: Displacement of [3H]alpha-BGT from nAChR in Torpedo nobiliana electric organs at 300 uM. The conditions noted are these: Electric organ.
Assay [6] has the same target. Briefly: Inhibition of [3H]PCP binding to nAChR in Torpedo nobiliana electric organs in presence of carbachol. The conditions noted are these: Electric organ.
Assay [7] relates to Apis mellifera. In words: Displacement of [3H]alpha-BGT from nAChR in Apis mellifera (honeybee) head at 1000 uM.
The target in assay [8] is Acetylcholine receptor subunit alpha (Torpedo californica) (UniProt P02710). Briefly: Displacement of [3H]alpha-BGT from nAChR in Torpedo nobiliana electric organs at 1000 uM. The conditions noted are these: Electric organ.
Chain of Acetylcholine receptor subunit alpha (Torpedo californica) (P02710 whole entry): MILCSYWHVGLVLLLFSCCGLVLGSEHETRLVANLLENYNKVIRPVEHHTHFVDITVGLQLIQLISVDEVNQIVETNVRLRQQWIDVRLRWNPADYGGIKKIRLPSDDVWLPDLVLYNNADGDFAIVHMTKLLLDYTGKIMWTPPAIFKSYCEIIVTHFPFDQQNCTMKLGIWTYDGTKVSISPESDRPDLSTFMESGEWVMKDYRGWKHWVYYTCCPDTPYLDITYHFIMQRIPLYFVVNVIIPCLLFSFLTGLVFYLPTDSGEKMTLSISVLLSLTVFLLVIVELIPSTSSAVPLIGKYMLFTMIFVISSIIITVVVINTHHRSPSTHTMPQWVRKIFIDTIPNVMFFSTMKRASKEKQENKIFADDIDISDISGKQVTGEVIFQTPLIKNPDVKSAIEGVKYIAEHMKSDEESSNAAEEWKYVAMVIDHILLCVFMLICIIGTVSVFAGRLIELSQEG
Assay [9] is filed under the species Rattus norvegicus. Briefly: Displacement of [3H]nicotine from nAChR in Sprague-Dawley Rattus norvegicus (rat) whole brain homogenates at 1000 uM. It counts as tissue-based.

Usually IC50 stands for the concentration that gives 50% inhibition. A higher IC50 goes with weaker potency. As for `O=[N+]([O-])C=C1NCCCS1`, the results for the concentration for half-maximal inhibition (IC50) in assay [1] and in assay [2] were 1360 µM and 109 µM, respectively.
Turning to `CN(C)Cc1ccccn1`, the outcome in assay [3] was inactive. Moreover, in assay [4], the result was Active.
On the same counts, the results for `CN(C)Cc1cccnc1` are “inactive” and “Active”.
As to `CN(C)Cc1ccncc1`, in assay [3], the outcome was inactive. The result in assay [4] was Active.
A word on the inhibition: it is the relative decrease from the control value, in per cent. Turning to `C/C(=N\C#N)N(C)Cc1ccc(Cl)nc1` [ACETAMIPRID], the 50% inhibitory concentration (IC50) in assay [1] amounted to 8.83 µM. Besides, the inhibition in assay [5] came to 12.6%.
Turning to `c1cncc([C@@H]2CCCCN2)c1` [ANABASINE], the IC50 amounted to 1.98 µM in assay [1] and 0.285 µM in assay [2].
The corresponding values for `C[N+](C)(C)CCOC(N)=O` [CARBACHOL] are 90.2 µM and 0.647 µM.
With `O=[N+]([O-])/N=C1\NCCN1Cc1ccc(Cl)nc1` [IMIDACLOPRID], the 50% inhibitory concentration (IC50) worked out at 1.95 µM in assay [1] and 0.984 µM in assay [2]. Further, the inhibition entry in assay [6] was “inactive”. Further, in assay [3], the outcome was inactive. Besides, in [4], the Activity came to 300%.
Regarding `CN1CCC[C@H]1c1cccnc1` [NICOTINE], the figures for the IC50 in assay [1] and in assay [2] were 1.25 µM and 0.0096 µM, respectively. Also, in assay [3], the result was inactive. The outcome in [4] was Active.
For the compound `Cn1cccc1-c1cccnc1` [NICOTYRINE], the IC50 in assay [1] and in assay [2] was > 1000 µM throughout. Moreover, the inhibition is 1.5% in assay [7], 2.55% in [8] and 15.6% in [9].
The compound `CCN(Cc1ccc(Cl)nc1)/C(=C/[N+](=O)[O-])NC` [NITENPYRAM] had an IC50 in assay [1] of 61.3 µM. This lies in the double-digit micromolar range.
In the case of `C[N+](C)(C)C` [TRETRAMETHYLAMMONIUM IODIDE], in assay [1], the IC50 was 542 µM. For the same compound, the result in [3] was inactive. Further, in assay [4], the result was Active.
